Patent US20150105252A1, “SUBSTITUTED PYRAZOLES AS HERBICIDES” (E I DU PONT DE NEMOURS AND COMPANY, priority 2013, published 2015)

What was measured:
radish, wild = assay: Test D postemergence; format: in vivo, Raphanus raphanistrum; conditions: scale 0 to 100
From the text: (§1) Seeds of plant species selected from bluegrass (annual bluegrass, Poa annua), blackgrass (Alopecurus myosuroides), canarygrass (littleseed canarygrass, Phalaris minor), chickweed (common chickweed, Stellaria media), galium (catchweed bedstraw, Galium aparine), bromegrass, downy (downy bromegrass, Bromus tectorum), field poppy (Papaver rhoeas), field violet (Viola arvensis), foxtail, green (green foxtail, Setaria viridis), deadnettle (henbit deadnettle, Lamium amplexicaule), ryegrass, Italian (Italian ryegrass, Lolium multiflorum), kochia (Kochia scoparia), lambsquarters (Chenopodium album), oilseed rape (Brassica napus), pigweed (redroot pigweed, Amaranthus retroflexus), chamomile (scentless chamomile, Matricaria inodora), speedwell (bird's-eye speedwell, Veronica persica), barley, spring (spring barley, Hordeum vulgare), wheat, spring (spring wheat, Triticum aestivum), buckwheat, wild (wild buckwheat, Polygonum convolvulus), mustard, wild (wild mustard, Sinapis arvensis), oat, wild (wild oat, Avena fatua), radish, wild (wild radish, Raphanus raphanistrum), windgrass (Apera spica-venti), Russian thistle (Salsola kali), barley, winter (winter barley, Hordeum vulgare), and wheat, winter (winter wheat, Triticum aestivum) were planted into a silt loam soil and treated preemergence with test chemicals formulated in a non-phytotoxic solvent mixture which included a surfactant.
(§2) At the same time, these species were planted in pots containing Redi-Earth® planting medium (Scotts Company, 14111 Scottslawn Road, Marysville, Ohio 43041) comprising spaghnum peat moss, vermiculite, wetting agent and starter nutrients and treated with postemergence applications of the test chemicals formulated in the same manner. Plants ranged in height from 2 to 18 cm (1- to 4-leaf stage). Treated plants and controls were maintained in a controlled growth environment for 14 to 21 days after which time all species were compared to controls and visually evaluated. Plant response ratings, summarized in Table D, are based on a scale of 0 to 100 where 0 is no effect and 100 is complete control. A dash (-) response means no test result.

wheat, winter = assay: Test D postemergence; format: in vivo, Triticum aestivum; conditions: scale 0 to 100
From the text: as §1, §2

wheat, spring = assay: Test D postemergence; format: in vivo, Triticum aestivum; conditions: scale 0 to 100
From the text: as §1, §2

buckwheat, wild = assay: Test D postemergence; format: in vivo, Polygonum convolvulus; conditions: scale 0 to 100
From the text: as §1, §2

foxtail, green = assay: Test D postemergence; format: in vivo, Setaria viridis; conditions: scale 0 to 100
From the text: as §1, §2

galium [1] = assay: Test D postemergence; format: in vivo, Galium aparine; conditions: scale 0 to 100
From the text: as §1, §2

mustard, wild = assay: Test D postemergence; format: in vivo, Sinapis arvensis; conditions: scale 0 to 100
From the text: as §1, §2

galium [2] = assay: Test D preemergence; format: in vivo, Galium aparine; conditions: scale 0 to 100
From the text: as §1, §2

lambsquarters [3] = assay: Test D postemergence; format: in vivo, Chenopodium album; conditions: scale 0 to 100
From the text: as §1, §2

lambsquarters [4] = assay: Test F preemergence; format: in vivo, Chenopodium album
From the text: (§3) Seeds of plant species selected from corn (Zea mays), soybean (Glycine max), velvetleaf (Abutilon theophrasti), lambsquarters (Chenopodium album), wild poinsettia (Euphorbia heterophylla), pigweed, palmer (palmer pigweed, Amaranthus palmeri), common waterhemp (Amaranthus rudis), surinam grass (Brachiaria decumbens), large crabgrass (Digitaria sanguinalis), crabgrass, Brazil (Brazilian crabgrass, Digitaria horizontalis), fall panicum (Panicum dichotomiflorum), giant foxtail (Setaria faberii), green foxtail (Setaria viridis), goosegrass (Eleusine indica), johnsongrass (Sorghum halepense), common ragweed (Ambrosia elation), barnyardgrass (Echinochloa crus-galli), southern sandbur (Cenchrus echinatus), arrowleaf sida (Sida rhombifolia), Italian ryegrass (Lolium multiflorum), dayflower, VA (Virginia (VA) dayflower, Commelina virginica), field bindweed (Convolvulus arvensis), cocklebur (common cocklebur, Xanthium strumarium), morningglory (Ipomoea coccinea), nightshade (eastern black nightshade, Solanum ptycanthum), kochia (Kochia scoparia), yellow nutsedge (Cyperus esculentus), and hairy beggarticks (Bidens pilosa), were planted into a silt loam soil and treated preemergence with test chemicals formulated in a non-phytotoxic solvent mixture which included a surfactant.
(§4) At the same time, plants from these crop and weed species and also horseweed (Canada horseweed, Conyza canadensis), smartweed (ladysthumb smartweed, Polygonum persicaria), waterhemp_RES1, (ALS & Triazine resistant common waterhemp, Amaranthus rudis), and waterhemp_RES2, (ALS & HPPD resistant common waterhemp, Amaranthus rudis) were treated with postemergence applications of test chemicals formulated in the same manner. Plants ranged in height from 2 to 18 cm for postemergence treatments (1- to 4-leaf stage). Treated plants and controls were maintained in a greenhouse for 14 to 21 days, after which time all species were compared to controls and visually evaluated. Plant response ratings, summarized in Table F, are based on a scale of 0 to 100 where 0 is no effect and 100 is complete control. A dash (-) response means no test result.

barnyardgrass = assay: Test F preemergence; format: in vivo, Echinochloa crus-galli
From the text: as §3, §4

wild poinsettia = assay: Test F preemergence; format: in vivo, Euphorbia heterophylla
From the text: as §3, §4

Italian ryegrass = assay: Test F preemergence; format: in vivo, Lolium multiflorum
From the text: as §3, §4

soybean = assay: Test F preemergence; format: in vivo, Glycine max
From the text: as §3, §4

[5] = Preemergence, 31 g ai/ha, scale 0 to 100
[6] = Preemergence, 62 g ai/ha, scale 0 to 100
[7] = Preemergence, 125 g ai/ha, scale 0 to 100
[8] = preemergence, 8 g ai/ha, scale 0 to 100, 100 is complete control
[9] = preemergence, 16 g ai/ha, scale 0 to 100, 100 is complete control

Q: How did the “Radish, Wild plant response rating” value (radish, wild; Postemergence, 31 g ai/ha) turn out when `CCc1cc(C(=O)NC(C)C)nn1Cc1ccnc(C(F)(F)F)c1` [Compound 103] was run?
A: 25

Q: And the “Radish, Wild plant response rating” value (radish, wild; Postemergence, 125 g ai/ha)?
A: 50

Q: And the “Radish, Wild plant response rating” value (radish, wild; Postemergence, 250 g ai/ha)?
A: 60

Q: What about the “Radish, Wild plant response rating” value (radish, wild; postemergence, 62 g ai/ha) of the same compound?
A: 35

Q: And the “Wheat, Winter plant response rating” value (wheat, winter; Postemergence, 31 g ai/ha)?
A: 0

Q: And the “Wheat, Winter plant response rating” value (wheat, winter; Postemergence, 125 g ai/ha)?
A: 10

Q: And the “Wheat, Winter plant response rating” value (wheat, winter; Postemergence, 250 g ai/ha)?
A: 30

Q: And the “Wheat, Winter plant response rating” value (wheat, winter; postemergence, 62 g ai/ha)?
A: 5

Q: What about the “Wheat, Spring plant response rating” value (wheat, spring; Postemergence, 31 g ai/ha) of the same compound?
A: 0

Q: What about the “Wheat, Spring plant response rating” value (wheat, spring; Postemergence, 125 g ai/ha) of the same compound?
A: 0

Q: And the “Wheat, Spring plant response rating” value (wheat, spring; Postemergence, 250 g ai/ha)?
A: 5

Q: What about the “Wheat, Spring plant response rating” value (wheat, spring; postemergence, 62 g ai/ha) of the same compound?
A: 0

Q: And the “Buckwheat, Wild plant response rating” value (buckwheat, wild; Postemergence, 31 g ai/ha)?
A: 25

Q: What about the “Buckwheat, Wild plant response rating” value (buckwheat, wild; Postemergence, 125 g ai/ha) of the same compound?
A: 55

Q: What about the “Buckwheat, Wild plant response rating” value (buckwheat, wild; Postemergence, 250 g ai/ha) of the same compound?
A: 60

Q: What about the “Buckwheat, Wild plant response rating” value (buckwheat, wild; postemergence, 62 g ai/ha) of the same compound?
A: 50

Q: What about the “Foxtail, Green plant response rating” value (foxtail, green; Postemergence, 31 g ai/ha) of the same compound?
A: 30

Q: What about the “Foxtail, Green plant response rating” value (foxtail, green; Postemergence, 125 g ai/ha) of the same compound?
A: 35

Q: What about the “Foxtail, Green plant response rating” value (foxtail, green; Postemergence, 250 g ai/ha) of the same compound?
A: 65

Q: What about the “Foxtail, Green plant response rating” value (foxtail, green; postemergence, 62 g ai/ha) of the same compound?
A: 20

Q: And the “Galium plant response rating” value (galium [1]; Postemergence, 31 g ai/ha)?
A: 55

Q: What about the “Galium plant response rating” value (galium [1]; Postemergence, 125 g ai/ha) of the same compound?
A: 75

Q: What about the “Galium plant response rating” value (galium [1]; Postemergence, 250 g ai/ha) of the same compound?
A: 80

Q: What about the “Galium plant response rating” value (galium [1]; postemergence, 62 g ai/ha) of the same compound?
A: 70

Q: What about the “Mustard, Wild plant response rating” value (mustard, wild; Postemergence, 31 g ai/ha) of the same compound?
A: 25

Q: What about the “Mustard, Wild plant response rating” value (mustard, wild; Postemergence, 125 g ai/ha) of the same compound?
A: 60

Q: What about the “Mustard, Wild plant response rating” value (mustard, wild; Postemergence, 250 g ai/ha) of the same compound?
A: 60

Q: And the “Mustard, Wild plant response rating” value (mustard, wild; postemergence, 62 g ai/ha)?
A: 45

Q: And the “Plant response rating, Galium” value (galium [2]; 31 g ai/ha)?
A: 50

Q: What about the “Plant response rating, Galium” value (galium [2]; 62 g ai/ha) of the same compound?
A: 100

Q: What about the “Plant response rating, Galium” value (galium [2]; 125 g ai/ha) of the same compound?
A: 100

Q: What about the “Plant response rating, Galium” value (galium [2]; 250 g ai/ha) of the same compound?
A: 100

Q: What about the “Lambsquarters plant response rating” value (lambsquarters [3]; Postemergence, 31 g ai/ha) of the same compound?
A: 35

Q: What about the “Lambsquarters plant response rating” value (lambsquarters [3]; Postemergence, 125 g ai/ha) of the same compound?
A: 40

Q: And the “Lambsquarters plant response rating” value (lambsquarters [3]; Postemergence, 250 g ai/ha)?
A: 60

Q: And the “Lambsquarters plant response rating” value (lambsquarters [3]; postemergence, 62 g ai/ha)?
A: 30

Q: What does the source list for `CCOc1cc(C(=O)NCC(F)(F)F)nn1Cc1ccnc(C(F)(F)F)c1` [Compound 104]?
A: Plant response rating, Lambsquarters (lambsquarters [4]; [5]): 100; Plant response rating, Lambsquarters (lambsquarters [4]; [6]): 100; Plant response rating, Lambsquarters (lambsquarters [4]; [7]): 100; Plant response rating, Lambsquarters (lambsquarters [4]; [8]): 35; Plant response rating, Lambsquarters (lambsquarters [4]; [9]): 60; Plant response rating, Barnyardgrass (barnyardgrass; [5]): 50; Plant response rating, Barnyardgrass (barnyardgrass; [6]): 100; Plant response rating, Barnyardgrass (barnyardgrass; [7]): 100; Plant response rating, Barnyardgrass (barnyardgrass; [8]): 10; Plant response rating, Barnyardgrass (barnyardgrass; [9]): 20; Plant response rating, Wild Poinsettia (wild poinsettia; [5]): 15; Plant response rating, Wild Poinsettia (wild poinsettia; [6]): 80; Plant response rating, Wild Poinsettia (wild poinsettia; [7]): 98; Plant response rating, Wild Poinsettia (wild poinsettia; [8]): 0; Plant response rating, Wild Poinsettia (wild poinsettia; [9]): 10; Plant response rating, Italian Ryegrass (Italian ryegrass; [5]): 40; Plant response rating, Italian Ryegrass (Italian ryegrass; [6]): 60; Plant response rating, Italian Ryegrass (Italian ryegrass; [7]): 75; Plant response rating, Italian Ryegrass (Italian ryegrass; [8]): 0; Plant response rating, Italian Ryegrass (Italian ryegrass; [9]): 0; Plant response rating, Soybean (soybean; [5]): 25; Plant response rating, Soybean (soybean; [6]): 70; Plant response rating, Soybean (soybean; [7]): 90; Plant response rating, Soybean (soybean; [8]): 0; Plant response rating, Soybean (soybean; [9]): 0

Q: What does the source list for `CCNC(=O)c1cc(CCCl)n(Cc2ccnc(C(F)(F)F)c2)n1` [Compound 179]?
A: Plant response rating, Lambsquarters (lambsquarters [4]; [6]): 30; Plant response rating, Lambsquarters (lambsquarters [4]; [7]): 100; Plant response rating, Barnyardgrass (barnyardgrass; [5]): 15; Plant response rating, Barnyardgrass (barnyardgrass; [6]): 20; Plant response rating, Barnyardgrass (barnyardgrass; [7]): 50; Plant response rating, Barnyardgrass (barnyardgrass; [8]): 0; Plant response rating, Wild Poinsettia (wild poinsettia; [5]): 5; Plant response rating, Wild Poinsettia (wild poinsettia; [6]): 40; Plant response rating, Wild Poinsettia (wild poinsettia; [7]): 50; Plant response rating, Wild Poinsettia (wild poinsettia; [8]): 0; Plant response rating, Italian Ryegrass (Italian ryegrass; [5]): 10; Plant response rating, Italian Ryegrass (Italian ryegrass; [6]): 40; Plant response rating, Italian Ryegrass (Italian ryegrass; [7]): 65; Plant response rating, Italian Ryegrass (Italian ryegrass; [8]): 0; Plant response rating, Soybean (soybean; [5]): 35; Plant response rating, Soybean (soybean; [6]): 65; Plant response rating, Soybean (soybean; [7]): 70; Plant response rating, Soybean (soybean; [8]): 0
